{"source": "patent EP0755382B1", "about": "“QUINOLONE DERIVATIVE FOR TREATMENT OF URINARY INCONTINENCE” (AstraZeneca AB, priority 1994, dated 1995)", "key": {"intestinal smooth muscle": {"system": "intestinal smooth muscle", "conditions": "Vitolinya et al, Khim.-Farm. Zh., 15(1), 39-42, 1981; cited from earlier work"}, "[1]": {"system": "guinea pig detrusor strips", "assay": "first in vitro test: relaxation of guinea pig bladder detrusor strips contracted with 15 mM KCl", "format": "cell-based, guinea pigs", "conditions": "Cavia porcellus", "from_the_text": "The actions of the compound as a smooth muscle relaxant useful as a therapeutic agent for the treatment of urinary incontinence through its action to open potassium channels and hyperpolarize the membrane potential in the bladder detrusor smooth muscle can be shown using suitably designed in vitro tests, such as the one described following. […] \"IC50\" is a well understood term and means the concentration of test compound which causes a 50% decrease in the in vitro contraction of the bladder tissue described in the following test.\nHale albino Hartley guinea pigs (450-500g) are sacrificed by carbon dioxide induced asphyxiation and quickly exsanguinated. The lower abdominal cavity is opened and the urinary bladder isolated. The bladder is cleaned of surrounding connective and adipose tissue, and the portion above the ureteral orifices is removed and washed in Krebs-Henseleit buffer solution of the following composition (in mH): NaCl 118.0, KCl 4.7, […] 1.2, KH2PO4 1.2, CaCl2 2.5, NaHCO3 25.0 and d-glucose 11.1. The solution is warmed to 37°C and gassed with 95% O2 and 5% CO2. […]\nWhen the tissue relaxes to a steady state after the final washing, 15 mM KCl is again applied. […] The effect of the compound at each dose is expressed as % of the maximum inhibitory response, which is further normalized with respect to the corresponding effect of the compound vehicle control. […]"}, "[2]": {"system": "guinea pig detrusor strips", "assay": "second in vitro test: relaxation of guinea pig bladder detrusor strips contracted with 80 mM KCl", "format": "cell-based, guinea pigs", "conditions": "for potency in the second test compared with the first test: 80 mM KCl (second test) versus 15 mM KCl (first test)", "procedure": "This second in vitro test is similar to the one described above with regard to tissue preparation and data acquisition. However, the following exceptions are noted. In this second test, the contraction of the detrusor strips during priming and after the equilibration period is achieved with 80 mM instead of 15 mM KCl (total concentration in the bath).\nTypical calcium channel blockers like nifedipine, nimodipine, isradipine, and verapamil are able to relax and reduce the myogenic activity of guinea pig detrusor strips in both tests by virtue of their blocking action on calcium channels."}, "bladder": {"system": "bladder", "assay": "in vivo test in conscious catheterized rats: interval between bladder contractions, heart rate and MAP after oral dosing", "set-up": "species or system Wistar rats", "conditions": "dosed orally, 3 mg/kg", "procedure": "Hale Wistar rats (400 - 500 g) are anesthetized with 50 mg/kg Nembutal, i.p. For each rat, the abdominal region and the front and back of the neck are shaved and povidone-iodine is applied to the skin. For carotid catheterization, the left carotid artery is exposed via a small ventral cervical incision. The exposed area is flushed with a 2% lidocaine HCl solution to relax the vessel. The catheter, filled with 0.9% saline, is introduced approximately 2.4 cm into the artery so that its tip resided in the aortic arch. The distal end of the catheter is exteriorized at the nape of the neck, filled with heparin (1000 units/ml) and heat sealed. For bladder catheterization, the bladder is exposed through a midline abdominal incision. […]\nThe rats are weighed, orally sham-dosed (dosing needle introduced, but no fluid expelled), and transvesical saline infusion (.18 ml/min) is begun and continued throughout the experiment. Variations in blood pressure, heart rate, intravesical pressure and urine output are recorded on either a Grass Polygraph or a Gould TA4000 recording system. […] At this point, a basal level of each experimental parameter is recorded and the rats are administered by oral gavage the appropriate dose of compound (in a 75% PEG 400 - saline vehicle) in concentrations such that the volume is 1 ml/kg body weight. […]"}, "urinary incontinence": {"system": "urinary incontinence", "conditions": "preliminary clinical trial; Nurse et al., British Journal of Urology (1991), 68, 27-31; cited from earlier work"}}, "data": [{"compound": "CC1=C(C#N)C(c2ccccc2)C2=C(CC(C)(C)CC2=O)N1", "note": "(centres unmarked) [3-Cyano-4-phenyl-2,7,7-trimethyl-4,6,7,8-tetrahydro-5(1H)-quinolone]", "values": [{"measurement": "effect on the cardiovascular system", "setting": "intestinal smooth muscle", "value": "hypotensive properties"}, {"measurement": "spasmogenic effect of acetylcholine and barium chloride on intestinal smooth muscle", "setting": "intestinal smooth muscle", "value": "capable of blocking the spasmogenic effect"}]}, {"compound": "N#Cc1cccc([C@@H]2C=C(C(F)(F)F)NC3=C2C(=O)CCC3)c1", "note": "[The compound, (S)-(-)-4-(3-Cyanophenyl)-2-trifluoromethyl-4,6,7,8-tetrahydro-5(1H)-quinolone]", "values": [{"measurement": "IC50", "setting": "[1]; concentration causing a 50% decrease in the in vitro contraction of the bladder tissue", "value": 4.2, "unit": "µM"}, {"measurement": "IC50", "setting": "[2]; Cavia porcellus, second test, 80 mM KCl", "value": 41.1, "unit": "µM"}, {"measurement": "activity and selectivity for the bladder", "setting": "bladder", "value": "active and selective for the bladder without significant cardiovascular effects"}]}, {"compound": "CC1(C)Oc2ccc(C#N)cc2C(N2CCCC2=O)C1O", "note": "(centres unmarked) [cromakalim]", "values": [{"measurement": "IC50", "setting": "[1]; first test", "value": "0.6 to 0.9", "unit": "µM"}, {"measurement": "relaxant activity", "setting": "[2]; second test, 80 mM KCl, at concentrations as high as 30 µM", "value": "insignificant relaxant activity"}, {"measurement": "treatment of urinary incontinence", "setting": "urinary incontinence", "value": "effective"}]}, {"compound": "COC(=O)C1=C(C)NC(C)=C(C(=O)OC(C)C)C1c1cccc2nonc12", "note": "(centres unmarked) [isradipine]", "values": [{"measurement": "potency in the second test compared with the first test", "setting": "[2]", "value": "more potent in the second test"}]}, {"compound": "COc1ccc(Cc2nccc3cc(OC)c(OC)cc23)cc1OC", "note": "[papaverine]", "values": [{"measurement": "sustained tension after high KCl stimulation", "setting": "[2]; 80 mM KCl, 300 µM", "value": "totally abolished"}]}, {"compound": "COc1ccc(CCN(C)CCCC(C#N)(c2ccc(OC)c(OC)c2)C(C)C)cc1OC", "note": "(centres unmarked) [verapamil]", "values": [{"measurement": "potency in the second test compared with the first test", "setting": "[2]", "value": "more potent in the second test"}]}]}
